Usually IC50 stands for the point on the concentration scale where inhibition reaches its midpoint.

Counter-ions that a name gives are not always drawn.

For the first assay, the system named is Plasmodium falciparum: 3D7 strain. Nature of the assay: P. falciparum 3D7 asexual blood stage assay (SYBR green readout). The assay is classed as cell-based. To be noted: Plasmodium falciparum, 3D7, Erythrocyte, 72 h, P. falciparum 3D7 in human erythrocytes, 72 h incubation, SYBR green fluorescence. The text has this: The compounds of the present invention are potent inhibitors of the growth and propagation of the Plasmodium falciparum parasite in human blood.
The assay used to measure the effect of test compounds on a bloodstream stage of Plasmodium falciparum: 3D7 strain employs SYBR green as the readout. This is a dye that binds to double stranded deoxyribonucleic acid (DNA) with a resulting increase in fluorescence, allowing detection of P. falciparum DNA in infected erythrocytes, and thereby providing a measure of parasite growth and propagation.
Erythrocytes (A+blood) were prepared for both parasite culture and assay by washing 4 times with incomplete media (15.9 g RPMI 1640 (25 mM HEPES, L-glutamine), 1 g NaHCO3, 2 g glucose, 400 μL gentacin (500 mg/mL), 2 mL hypoxanthine solution (13.6 g/L in 0.1M NaOH pH 7.3) in 1 litre of media). The cells were centrifuged at 1800 g for 5 minutes, before decanting the supernatant and re-suspending in fresh incomplete media. On the final wash, the cells were re-suspended in complete media (incomplete media with 5 g/L AlbumaxII), and centrifuged at 1800 g for 3 minutes. This cell sediment was treated as 100% haematocrit.
P. falciparum 3D7 was cultured in erythrocytes at 5% haematocrit in complete media at 37° C. (1% O2, 3% CO2, balance N2). Cultures were split on a weekly basis to achieve a 1% parasitaemia in erythrocites at 5% haematocrit in fresh media. Culture media is replaced by fresh media every other day (2 times during the week).
On day 1, test compounds were added to assay plates using Echo dispensing technology ([…] and 20 points titration). 50 nL of each compound dilution was added to 50 μL of culture (5% haematocrit, 0.5% parasitaemia) and incubated for 72 h at 37° C. (1% O2, 3% CO2, balance N2). Final concentrations of test compounds ranged from 50,000 nM to 15 nM, in […].
On day 4, 10 μL SYBR green (Invitrogen S7563 supplied as 10,000×concentrate in DMSO) pre-diluted to 3×concentrate with Lysis buffer (20 mM Tris pH 7.9, 5% EDTA, 0.16% w/v, 1.6% TX100 v/v) was added to the cultures and incubated in the dark, overnight, at room temperature.
On day 5, fluorescent signal was measured using a BioTek plate reader (excitation 485 nm, emission 528 nm). All data were processed using IDBS ActivityBase. Raw data were converted into percent inhibition through linear regression by setting the high inhibition control (mefloquine) as 100% and the no inhibition control (DMSO) as 0%. Quality control criteria for passing plates were as follows: Z′>0.5, S:B>3, % CV(no inhibition control)<15. The formula used to calculate Z′ is: […]
All EC50 curve fitting was undertaken using the following bi-phasic two site dose response using XLfit model 300 (IDBS):
where A=100 minus the top of the upper curve 1 and the bottom of lower curve; B=Hill slope; log(C)=IC50 concentration at lower site; log(D)=IC50 concentration at upper site; x=inhibitor concentration; and y=% inhibition.
`C[C@@H]1C[C@H](N2C(=N)N[C@](C)(c3cccc(-c4ccc(Cl)cn4)c3Cl)CC2=O)CCS1(=O)=O` (relative stereo) [Example 74, (6S)-6-[2-Chloro-3-(5-chloro-pyridin-2-yl)phenyl]-2-imino-6-methyl-3-[(2R*,4R*)-2-methyl-1,1-dioxothian-4-yl]hexahydro-pyrimidin-4-one hydrochloride]: the IC50 worked out at 0.059 µM. In turn, `C[C@@]1(c2cccc(-c3ccc(C4CC4)nc3)c2Cl)CC(=O)N([C@H]2CCC(F)(F)[C@@H](O)C2)C(=N)N1` (relative stereo) [Example 99, (6S)-6-[2-Chloro-3-(6-cyclopropyl-pyridin-3-yl)phenyl]-3-[(1S*,3S*)-4,4-difluoro-3-hydroxycyclohexyl]-2-imino-6-methylhexahydro-pyrimidin-4-one hydrochloride] gave an IC50 of 1.97 µM.

For `C[C@H]1C[C@@H](N2C(=N)N[C@](C)(c3cccc(-c4cn(-c5ccncc5)nn4)c3Cl)CC2=O)CCO1` [Example 119, (6S)-6-{2-Chloro-3-[1-(pyridin-4-yl)-1,2,3-triazol-4-yl]phenyl}-2-imino-6-methyl-3-[(2S,4S)-2-methyltetrahydropyran-4-yl]-hexahydropyrimidin-4-one trifluoroacetic acid salt], the IC50 came out at 0.296 µM.

Take `C[C@H]1C[C@@H](N2C(=N)N[C@](C)(c3cccc(-c4ccccc4Cl)c3Cl)CC2=O)CCO1` [Example 46, (6S)-6-[2-Chloro-3-(2-chloro-phenyl)phenyl]-2-imino-6-methyl-3-[(2S,4S)-2-methyltetrahydro-pyran-4-yl]hexahydropyrimidin-4-one trifluoroacetic acid salt]: the IC50 was determined as 0.105 µM. Same read-out and setting: the same measure for `C[C@@]1(c2cccc(-c3cc(C4CC4)no3)c2Cl)CC(=O)N([C@H]2CCC(F)(F)[C@@H](O)C2)C(=N)N1` (relative stereo) [Example 87, (6S)-6-[2-Chloro-3-(3-cyclopropyl-isoxazol-5-yl)phenyl]-3-[(1S*,3S*)-4,4-difluoro-3-hydroxycyclohexyl]-2-imino-6-methylhexahydro-pyrimidin-4-one hydrochloride]: 2.91 µM; for `C[C@H]1C[C@@H](N2C(=N)N[C@](C)(c3cccc(-c4cn(-c5cc(F)c(F)cc5F)nn4)c3Cl)CC2=O)CC[C@H]1O` (relative stereo) [Example 112, (6S)-6-{2-Chloro-3-[1-(2,4,5-trifluorophenyl)-1,2,3-triazol-4-yl]-phenyl}-3-[(1S*,3S*,4R*)-4-hydroxy-3-methylcyclohexyl]-2-imino-6-methylhexahydro-pyrimidin-4-one hydrochloride]: 0.132 µM; for `C[C@H]1C[C@@H](N2C(=N)N[C@](C)(c3cccc(-c4ccn[nH]4)c3Cl)CC2=O)CCO1` [Example 45, (6S)-6-[2-Chloro-3-(1H-pyrazol-5-yl)phenyl]-2-imino-6-methyl-3-[(2S,4S)-2-methyltetrahydropyran-4-yl]hexahydropyrimidin-4-one trifluoroacetic acid salt]: 0.012 µM. In turn, `C[C@@]1(c2cccc(-c3cnn(CC(F)(F)F)c3)c2Cl)CC(=O)N([C@@H]2CCC(F)(F)[C@H](O)C2)C(=N)N1` (relative stereo) [Example 84, (6S)-6-{2-Chloro-3-[1-(2,2,2-trifluoroethyl)pyrazol-4-yl]phenyl}-3-[(1R*,3R*)-4,4-difluoro-3-hydroxycyclohexyl]-2-imino-6-methylhexahydropyrimidin-4-one hydrochloride] returned an IC50 of 0.339 µM. Consider `C[C@@H]1C[C@@H](N2C(=N)N[C@](C)(c3cccc(-c4ccc(OC(F)(F)F)nc4)c3Cl)CC2=O)CCS1(=O)=O` (relative stereo) [Example 81, (6S)-6-{2-Chloro-3-[6-(trifluoro-methoxy)pyridin-3-yl]phenyl}-2-imino-6-methyl-3-[(2R*,4S*)-2-methyl-1,1-dioxothian-4-yl]-hexahydropyrimidin-4-one hydrochloride], for which the concentration for half-maximal inhibition (IC50) worked out at 0.42 µM. `C[C@H]1C[C@@H](N2C(=N)N[C@](C)(c3cccc(-c4ccncc4)c3Cl)CC2=O)CCO1` [Example 39, (6S)-6-[2-Chloro-3-(pyridin-4-yl)-phenyl]-2-imino-6-methyl-3-[(2S,4S)-2-methyltetrahydropyran-4-yl]hexahydropyrimidin-4-one trifluoroacetic acid salt] had an IC50 of 0.269 µM. Same read-out and setting: with `C[C@H]1C[C@@H](N2C(=N)N[C@](C)(c3cccc(-c4cccc(Cl)c4)c3Cl)CC2=O)CCN1` (relative stereo) [Example 100, (6S)-6-[2-Chloro-3-(3-chloro-phenyl)phenyl]-2-imino-6-methyl-3-[(2S*,4S*)-2-methylpiperidin-4-yl]hexahydropyrimidin-4-one hydrochloride] the figure was 0.373 µM; with `C[C@H]1C[C@@H](N2C(=N)N[C@](C)(c3cccc(-c4ccc(N=S(C)(C)=O)cc4F)c3Cl)CC2=O)CCC1(F)F` [Example 18, (6S)-6-[2-Chloro-3-(4-{[(dimethyl)-(oxo)-λ^6-sulfanylidene]amino}-2-fluorophenyl)phenyl]-3-[(1S,3S)-4,4-difluoro-3-methylcyclohexyl]-2-imino-6-methylhexahydro-pyrimidin-4-one hydrochloride], 0.292 µM; with `CO[C@H]1C[C@@H](N2C(=N)N[C@](C)(c3cccc(-c4ccc(S(C)(=O)=O)cc4F)c3Cl)CC2=O)CCC1(F)F` (relative stereo) [Example 10, (6S)-6-{2-Chloro-3-[2-fluoro-4-(methylsulfonyl)phenyl]phenyl}-3-[(1S*,3S*)-4,4-difluoro-3-methoxy-cyclohexyl]-2-imino-6-methyl-hexahydropyrimidin-4-one hydrochloride], 0.006 µM. Same read-out and setting: the same measure for `C[C@H]1C[C@@H](N2C(=N)N[C@](C)(c3cccc(-c4cccc(S(C)(=O)=O)c4)c3Cl)CC2=O)CCO1` [Example 4, (6S)-6-[2-Chloro-3-(3-methyl-sulfonylphenyl)phenyl]-2-imino-6-methyl-3-[(2S,4S)-2-methyl-tetrahydropyran-4-yl]hexahydro-pyrimidin-4-one hydrochloride]: 0.017 µM; for `C[C@@]1(c2cccc(-c3cc(C4CC4)no3)c2Cl)CC(=O)N([C@@H]2CCC(F)(F)[C@H](O)C2)C(=N)N1` (relative stereo) [Example 86, (6S)-6-[2-Chloro-3-(3-cyclopropyl-isoxazol-5-yl)phenyl]-3-[(1R*,3R*)-4,4-difluoro-3-hydroxy-cyclohexyl]-2-imino-6-methyl-hexahydropyrimidin-4-one hydrochloride]: 0.286 µM. In turn, `C[C@@]1(c2cccc(-c3cccc(Cl)c3)c2Cl)CC(=O)N(C(CO)C2CC2)C(=N)N1` (single isomer, unassigned) [Example 94, (6S)-6-[2-Chloro-3-(3-chloro-phenyl)phenyl]-3-[(1R*)-1-cyclopropyl-2-hydroxyethyl]-2-imino-6-methylhexahydro-pyrimidin-4-one hydrochloride] displayed an IC50 of 0.088 µM. For `C[C@H](c1cccnc1)n1cc(-c2cccc([C@]3(C)CC(=O)N([C@H]4CCO[C@@H](C)C4)C(=N)N3)c2Cl)nn1` [Example 128, (6S)-6-(2-Chloro-3-{1-[(1R)-1-(pyridin-3-yl)ethyl]-1,2,3-triazol-4-yl}phenyl)-2-imino-6-methyl-3-[(2S,4S)-2-methyltetrahydropyran-4-yl]hexahydropyrimidin-4-one trifluoroacetic acid salt], the IC50 stood at 0.112 µM. The same measure, in the same setting: the same measure for `C[C@@H]1C[C@H](N2C(=N)N[C@](C)(c3cccc(-c4ccc(F)cc4F)c3Cl)CC2=O)CCN1` (relative stereo) [Example 103, (6S)-6-[2-Chloro-3-(2,4-difluoro-phenyl)phenyl]-2-imino-6-methyl-3-[(2R*,4R*)-2-methylpiperidin-4-yl]hexahydropyrimidin-4-one hydrochloride]: 0.744 µM.

Staying with this assay, now noted: Plasmodium falciparum, Erythrocyte; P. falciparum 3D7 in human erythrocytes, 72 h incubation, SYBR green fluorescence; read-out: IC50.
With `CN(C)[C@H]1C[C@@H](N2C(=N)N[C@](C)(c3cccc(-c4ccc(F)cc4F)c3Cl)CC2=O)C1` (single isomer, unassigned; isomer 2) [Example 89], the IC50 worked out at 7.95 µM.

(Values after US20250134890A1, “ANTIMALARIAL HEXAHYDROPYRIMIDINE ANALOGUES” (UCB BIOPHARMA SRL, priority 2022, published 2025).)
